What was measured:
Assay type in all cases: cell-based
mouse P2X1 receptor = target: T1, mouse P2X1 receptor (Mus musculus, UniProt P51576); test: Two-electrode voltage clamp, ATP-induced ion current in Xenopus oocytes expressing mouse P2X1; settings: for inhibition at 10 µM / % inhibition mP2X1: Table 2, 10 μM compound, ion current induced by 2 μM ATP, mean ± SEM, n = 4; for inhibition at 10 µM: read-out: % inhibition mP2X1; for Hill coefficient: concentration-inhibitory curve, 2 μM ATP (FIG. 1B, FIG. 2A); for IC50: concentration-response curve, 2 μM ATP, mean of four observations, read-out: IC50 value
T1 construct: EST clones containing full-length cDNAs of mouse P2X1 (clone ID: 4189541) and human P2X7 receptor (clone ID: 5286944); host or cells: Xenopus oocytes (cRNA injected)
T1 sequence (P51576 1-399): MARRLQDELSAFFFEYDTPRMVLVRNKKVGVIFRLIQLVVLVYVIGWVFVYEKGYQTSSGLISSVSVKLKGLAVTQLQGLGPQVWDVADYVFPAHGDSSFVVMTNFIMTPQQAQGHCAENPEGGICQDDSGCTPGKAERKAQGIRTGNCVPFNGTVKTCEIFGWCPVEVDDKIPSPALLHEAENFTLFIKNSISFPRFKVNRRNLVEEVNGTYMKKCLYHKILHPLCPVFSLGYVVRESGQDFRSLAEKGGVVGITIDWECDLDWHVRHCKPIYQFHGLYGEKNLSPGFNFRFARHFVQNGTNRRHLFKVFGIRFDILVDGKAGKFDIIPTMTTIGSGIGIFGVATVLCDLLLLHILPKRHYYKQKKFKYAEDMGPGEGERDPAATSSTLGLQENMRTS
Method: 1-1. Antagonistic Activity at Recombinant Mouse P2X1 and Human P2X3 Receptors
(§1) Xenopus oocytes were harvested and prepared with method as previously described in publications. Defolliculated oocytes were injected cytosolically with mouse P2X1 and human P2X3 receptor cRNA ([…], 1 μg/mL), respectively, incubated for 24 hrs at 18° C. in Barth's solution and kept for up to 12 days at 4° C. until used in electrophysiological experiments. ATP-activated membrane currents (Vh=−70 mV) were recorded from cRNA-injected oocytes using the twin-electrode voltage-clamp technique (Axoclamp 2B amplifier). Voltage recording (1-2 MΩ tip resistance) and current-recording microelectrodes (5 MΩ tip resistance) were filled with 3.0 M KCl. Oocytes were held in an electrophysiological chamber and superfused with Ringer's solution (5 mL/min, at 18° C.) containing (mM) NaCl, 110; KCl, 2.5; HEPES, 5; BaCl2, 1.8, adjusted to pH 7.5. ATP was superfused over the oocytes for 60-120s then washed out for a period of 20 min. For inhibition curves, data were normalized to the current evoked by ATP, at pH 7.5. Test substances were added for 20 min prior to ATP exposure; all peptides were tested for reversibility of their effects. The concentration required to inhibit the ATP response by 50% (IC50) was taken from Hill plots constructed using the formula: log(I/Imax−1), where I is the current evoked by ATP in the presence of an antagonist. Data are presented as mean±SEM (n=4) for the data from different batches of oocytes.

human P2X3 receptor = target: T2, human P2X3 receptor (Homo sapiens, UniProt P56373); test: Two-electrode voltage clamp, ATP-induced ion current in Xenopus oocytes expressing human P2X3; settings: for inhibition at 10 µM: read-out: % inhibition hP2X3; for inhibition at 0.1 µM: concentration of 100 nM, receptor not stated in the sentence (follows FIG. 2B, human P2X3), read-out: % inhibition; for Hill coefficient: concentration-inhibitory curve, 2 μM ATP (FIG. 1C, FIG. 2B); for IC50: concentration-response curve, 2 μM ATP, mean of four observations, read-out: IC50 value
T2 construct: expressed in transfected cells; host or cells: Xenopus oocytes (cRNA injected); cDNA from the Max-Planck Institute laboratory (Dr. W. Stuhmer and Dr. F. Soto)
T2 sequence (P56373 1-397): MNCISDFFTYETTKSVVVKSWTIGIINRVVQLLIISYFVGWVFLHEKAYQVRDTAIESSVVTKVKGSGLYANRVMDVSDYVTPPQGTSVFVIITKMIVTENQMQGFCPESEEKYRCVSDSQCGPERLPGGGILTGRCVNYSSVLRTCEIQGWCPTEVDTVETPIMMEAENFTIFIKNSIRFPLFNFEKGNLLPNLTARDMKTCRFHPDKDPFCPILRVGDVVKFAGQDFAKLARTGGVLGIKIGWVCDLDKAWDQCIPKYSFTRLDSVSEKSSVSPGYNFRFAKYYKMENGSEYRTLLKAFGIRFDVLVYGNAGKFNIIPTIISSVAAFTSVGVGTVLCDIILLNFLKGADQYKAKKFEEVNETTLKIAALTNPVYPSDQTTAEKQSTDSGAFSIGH
Method: Antagonistic Activity at Recombinant Mouse P2X1 and Human P2X3 Receptors
as §1

human P2X7 receptor = target: T3, human P2X7 receptor (Homo sapiens, UniProt Q99572); test: Ethidium+ accumulation assay in human P2X7-expressing HEK293 cells; settings: 10 μM compound, ethidium+ accumulation induced by 6 μM BzATP, n = 3
T3 construct: EST clones containing full-length cDNAs of mouse P2X1 (clone ID: 4189541) and human P2X7 receptor (clone ID: 5286944); host or cells: HEK293
T3 sequence (Q99572 1-595): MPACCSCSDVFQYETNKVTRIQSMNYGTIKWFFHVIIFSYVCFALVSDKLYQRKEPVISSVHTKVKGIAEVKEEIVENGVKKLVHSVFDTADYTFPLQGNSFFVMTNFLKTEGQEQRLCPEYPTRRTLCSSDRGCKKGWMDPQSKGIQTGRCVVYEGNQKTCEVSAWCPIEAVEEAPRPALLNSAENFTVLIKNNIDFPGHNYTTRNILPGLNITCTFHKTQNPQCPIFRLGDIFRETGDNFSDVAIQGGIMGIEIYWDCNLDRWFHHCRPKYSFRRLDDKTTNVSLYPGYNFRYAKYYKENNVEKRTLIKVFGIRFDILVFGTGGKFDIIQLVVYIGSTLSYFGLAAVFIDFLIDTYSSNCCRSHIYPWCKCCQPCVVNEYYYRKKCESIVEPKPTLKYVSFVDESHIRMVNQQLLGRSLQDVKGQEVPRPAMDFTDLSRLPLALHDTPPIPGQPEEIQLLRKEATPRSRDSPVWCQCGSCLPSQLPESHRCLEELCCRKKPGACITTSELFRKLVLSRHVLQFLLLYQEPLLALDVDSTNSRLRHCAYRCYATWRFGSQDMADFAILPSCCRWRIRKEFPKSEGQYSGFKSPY
Method: 1-2. Ethidium^+ Accumulation Assay at Human P2X7 Receptors
Human P2X7-expressing HEK293 cells were grown as monolayer culture at 37° C. in a humidified atmosphere of 5% CO2, DMEM supplemented with 10% fetal bovine serum. Cells were harvested with treatment of Trypsin/EDTA solution, collected by centrifugation (200 g for 5 min).
The cells were resuspended at 2.5×10^6 cells/mL in assay buffers, consisting of (in mM) HEPES 10, KCl 140, glucose 5, EDTA 1 (pH 7.4), and then ethidium bromide (100 μM) was added. Cell suspensions were added to 96 well plates containing the P2X7 receptor agonist, ATP or BzATP, at 2×10^5 cells/wells. Plates were incubated at 37° C. for 120 min and cellular accumulation of ethidium^+ was determined by measuring fluorescence with Bio-Tek instrument FL600 fluorescent plate reader (excitation wavelength of 530 nm and emission wavelength of 590 nm). When the effects of antagonists, such as PPADS, KN62, and test peptides were studied, antagonists were treated together with agonist without pre-incubation.

[1] = Table 2, 10 μM compound, ion current induced by 2 μM ATP, mean ± SEM, n = 4

Row | inhibition at 10 µM (mouse P2X1 receptor) [%] | inhibition at 10 µM (human P2X3 receptor; [1]) [%] | % inhibition hP2X7 (human P2X7 receptor) | % inhibition mP2X1 (mouse P2X1 receptor) [%] | % inhibition hP2X3 (human P2X3 receptor; [1]) [%] | Hill coefficient (mouse P2X1 receptor) | IC50 (mouse P2X1 receptor) [µM] | inhibition at 0.1 µM (human P2X3 receptor) [%] | Hill coefficient (human P2X3 receptor) | IC50 (human P2X3 receptor) [µM] | Compound
1 | 54.2 ± 10.6 | 31.4 ± 6.2 | inactive |  |  |  |  |  |  |  | Cc1nc(Cc2ccccc2)c(C(=O)O)c(C(=O)O)c1O [Compound 35, 2-Benzyl-5-hydroxy-6-methyl-pyridine-3,4-dicarboxylic acid]
2 | 47.9 ± 8.1 | 37.3 ± 10 | inactive |  |  |  |  |  |  |  | CC(=O)c1c(O)c(C)nc(CCc2ccccc2)c1C(=O)O [Compound 45, 4-acetyl-5-hydroxy-6-methyl-2-phenethylnicotinic acid]
3 | 46 | 18.3 ± 6.4 | inactive | 44.2 ± 4.0 |  |  |  |  |  |  | CC(=O)c1c(O)c(C)nc(Cc2ccccc2)c1C(=O)O [Compound 44, 4-acetyl-2-benzyl-5-hydroxy-6-methylnicotinic acid]
4 | 48.3 ± 4.1 | 67.9 ± 5.2 | inactive |  |  |  |  |  |  |  | Cc1nc(Cc2cccc3ccccc23)c(C(=O)O)c(C(=O)O)c1O [Compound 50, 5-Hydroxy-6-methyl-2-(naphthalene-1-ylmethyl)pyridine-3,4-dicarboxylic acid]
5 | 50.9 ± 6.1 | 70.5 ± 4.7 | inactive |  |  |  |  |  |  |  | COc1ccc(CCc2nc(C)c(O)c(C=O)c2CCC(=O)O)cc1 [Compound 61, 3-(4-formyl-5-hydroxy-2-(4-methoxyphenethyl)-6-methylpyridin-3-yl)propanoic acid]
6 |  |  | inactive | 53.9 ± 5.1 | 62.9 ± 7.1 |  |  |  |  |  | Cc1nc(CC(c2ccccc2)c2ccccc2)c(C(=O)O)c(C(=O)O)c1O [Compound 51, 2-(2,2,-diphenylethyl)5-hydroxy-6-methylpyridine-3,4-dicarboxylic acid]
7 | 29.9 ± 5.7 | 15.8 ± 9 | inactive |  |  |  |  |  |  |  | COc1cccc(/C=C/c2nc(C)c(O)c(C(C)=O)c2C(=O)O)c1 [Compound 48, (E)-4-acetyl-5-hydroxy-2-(3-methoxystyryl)-6-methylnicotinic acid]
8 | 40.4 ± 1.3 | 27.4 ± 5.5 | inactive |  |  |  |  |  |  |  | CC(=O)c1c(O)c(C)nc(/C=C/c2ccccc2)c1C(=O)O [Compound 47, (E)-4-acetyl-5-hydroxy-6-methyl-2-styrylnicotinic acid]
9 | 82 | 68.9 ± 11.7 | inactive | 82.7 ± 6.0 |  | −1.00±0.09 | 0.186 | 34 | −0.58±0.27 | 0.339 | Cc1nc(CCc2ccc(C(=O)O)cc2)c(C(=O)O)c(C(=O)O)c1O [Compound 39, 2-[2-(4-Carboxy-phenyl)-ethyl]-5-hydroxy-6-methyl-pyridine-3,4-dicarboxylic acid]
10 | 49.8 ± 5.4 | 34.5 ± 4.3 | inactive |  |  |  |  |  |  |  | COc1ccccc1CCc1nc(C)c(O)c(C(=O)O)c1C(=O)O [Compound 41, 5-Hydroxy-2-[2-(2-methoxy-phenyl)-ethyl]-6-methyl-pyridine-3,4-dicarboxylic acid]
11 | 51.4 ± 4.8 | 69.4 ± 7.5 | inactive |  |  |  |  |  |  |  | COc1ccc(CCc2nc(C)c(O)c(C=O)c2/C=C/C(=O)O)cc1 [Compound 64, (E)-3-(4-formyl-5-hydroxy-2-(4-methoxyphenethyl)-6-methylpyridin-3-yl)acrylic acid]
12 | 78 | 59.8 ± 4.6 | inactive | 77.0 ± 3.8 |  |  |  |  |  |  | COc1ccc(CCc2nc(C)c(O)c(C(=O)O)c2C(=O)O)cc1 [Compound 37, 5-Hydroxy-2-[2-(4-methoxy-phenyl)ethyl]-6-methyl-pyridine-3,4-dicarboxylic acid]
13 | 52.8 ± 5.6 | 72.6 ± 4.3 | inactive |  |  |  |  |  |  |  | COc1ccc(CCc2nc(C)c(O)c(C=O)c2C(=O)O)cc1 [Compound 67, 4-formyl-5-hydroxy-2-(4-methoxyphenethyl)-6-methylnicotinic acid]
14 | 52 ± 7.1 | 42.2 ± 7.5 | inactive |  |  |  |  |  |  |  | COc1ccc(CCc2nc(C)c(O)c(C(C)=O)c2C(=O)O)cc1 [Compound 46, 4-acetyl-5-hydroxy-2-(4-methoxyphenethyl)-6-methylnicotinic acid]
15 | 71.4 ± 4.3 | 48.4 ± 9 | inactive |  |  | −0.98±0.11 | 0.509 | 19.2 | −0.52±0.12 | 0.782 | Cc1nc(C=Cc2ccccc2)c(C(=O)O)c(C(=O)O)c1O [Compound 38, 5-Hydroxy-6-methyl-2-styryl-pyridine-3,4-dicarboxylic acid]
16 | 77 | 51 ± 9.8 | inactive | 73.4 ± 9.7 |  | −1.03±0.21 | 0.361 | 38.3 | −0.63±0.20 | 0.432 | Cc1nc(CCc2ccccc2)c(C(=O)O)c(C(=O)O)c1O [Compound 36, 5-Hydroxy-6-methyl-2-phenethyl-pyridine-3,4-dicarboxylic acid]

— patent US9546139B2, “Pyridine carboxylic acid based compound used as a P2X1 and P2X3 receptor antagonist, a production method for the same and a composition comprising the same” (GWANGJU INSTITUTE OF SCIENCE AND TECHNOLOGY, priority 2010, dated 2017)
